Series [1] has as its system IE2 negative feedback (MIEP-IE2-IRES-GFP construct, LM2ig). Kind of series: IE2 negative feedback reporter: cells harboring LM2ig (MIEP-IE2-IRES-GFP), GFP by flow cytometry. Format: cell-based, human CMV (hCMV). As for the experimental part:
(§1) MRCS fibroblasts and life-extended human foreskin fibroblasts (HFFs) (Bresnahan and Shenk, 2000) were maintained in Dulbecco's Modified Eagle's Medium (DMEM) supplemented with 10% fetal bovine serum (FBS) and 50 U/ml penicillin-streptomycin at 37° C. and 5% CO2 in a humidified incubator. ARPE-19 cells were maintained in a 1:1 mixture of DMEM/F-12 (Mediatech Inc.) with 10% FBS (HyClone) and 50 U/ml Penicillin-Streptomycin (Mediatech Inc.). Cells were treated with a final concentration of 1 mM valproic acid (VPA) (Calbiochem™), resuspended in dimethylsulfoxide, for approximately 24 hours before imaging. Cells were treated with a final concentration of 400 nM TSA (Sigma-Aldrich) resuspended in dimethylsulfoxide, for 20-24 hours, a final concentration of 10 ng/mL TNF-α (Sigma-Aldrich) resuspended in phosphate-buffered saline (PBS), or a final concentration of 1 mM VPA (Calbiochem) for approximately 24 hours before imaging.
(§2) Standard lentiviral cloning was used to create minimal major immediate early (MIE) circuits (Dull et al., 1998). The minimal MIEP-IE2-GFP and MIEP-GFP circuits are driven by a full-length ˜2.5 kb MIE promoter-enhancer (MIEP) that spans the sequence from the MIEP modulator at the 5′ edge to the junction of immediate early (IE) exons 1 and 2. The MIEP was polymerase chain reaction (PCR)-cloned from AD169 into pLEIGW in place of the EF1a promoter. This full-length MIEP drives an IE2-IRES-GFP or mCherry-IRES-GFP cassette. IE2 was cloned from pRSV-IE86 (a gift from Jay Nelson). ARPE-19 cells were infected and fluorescence-activated cell sorter (FACS) sorted for green fluorescent protein (GFP) fluorescence to create stably expressing cell lines. Cells were treated with Trichostatin-A (TSA) for 17 hours, and GFP expression was quantified by flow cytometry. Live cells were gated by forward-versus-side scattering on a FacsCalibur™ cytometer (BD Biosciences) and mean fluorescence intensity recorded. At least 20,000 live cells were recorded for each experiment and data was analyzed in FlowJo™ (Treestar Inc.).
See WO 2014/127148 for descriptions of MIEP-IE2-reporter constructs. For example, LM2ig construct is depicted in FIG. 7 of WO 2014/127148.

Series [2] deals with ARPE-19 cells stably transduced with LM2ig. Nature of the series: Viability of ARPE-19 cells stably transduced with LM2ig. Format: cell-based. The note with it: FIG. 1, FIG. 2. As for the experimental part:
as §1, §2

Series [3] has as its system CMV AD169 (a laboratory strain of HCMV). Nature of the series: Human CMV viral replication kinetics in MRCS cells (TCID50, PFU/ml). It counts as cell-based, human CMV (hCMV). How it is done:
MRCS cells were seeded into cell culture plates and maintained for 1 to 2 days until cells reached confluency at ˜5×10^4 cells per well. The monolayers were then infected with recombinant virus human CMV IE2-YFP or CMV-GFP as a control. HCMV IE2-YFP was used as the control virus for replication kinetics with the Δcrs IE2-YFP recombinant virus. Cells were infected at a multiplicity of infection (MOI) of 1, 0.2, or 0.1, as indicated. Inoculum was prepared using virus stocks diluted in culture media, and adsorbed onto cells in a volume of 200 μl for one hour at 37° C. in a humidified CO2 incubator. Inoculum was then removed and replaced with one mL of fresh media. The amount of infectious virus to prepare inoculum was based on plaque assay titrations (Bolovan-Fritts and Wiedeman, 2001) of virus stocks and is shown as time point 0 in each figure. For each time point three separate sample wells were collected. Infectious cell-free virus was collected by harvesting medium from infected culture wells at indicated time points and stored at −80° C. To measure replication, samples were thawed and prepared as a 10-fold serial dilution series in culture media, then analyzed by TCID50. The results were then converted to plaque-forming units per ml (PFU/ml). Error ranges were calculated using standard deviation.

In series [4] the test system is latent CMV in N-Tera2 cells. Kind of series: N-Tera2 latency assay (reactivation of latent CMV). Format: cell-based, human CMV (hCMV). The note with it: FIG. 4 lower panel, trihydrochloride hydrate. As for the experimental part: Reactivation of latent CMV in N-Tera2 cells was conducted as previously described in (Meier, 2001).
The test system of series [5] is Smith strain of MCMV. Kind of series: Murine CMV replication kinetics in BALB/c mice. Format: in vivo. How it is done: Murine CMV (MCMV) replication kinetics were performed in BALB/c mice using the Smith strain of MCMV as previously described (Orr et al., 2010) and on NIH 3T3 cells using same methods as for HCMV. Rhesus CMV (RhCMV) viral replication kinetics were performed on rhesus fibroblast cells as described in (Lilja et al., 2008).

Series [6] deals with CRS sequences (tetranucleotide motif TTTA). Nature of the series: bisBenzimide binding assay (fluorescence) with CRS sequences. Details: species or system hCMV. The conditions noted are these: CRS sequence 10 μM, BB33258 10 μM to 1 nM, room temperature, DPBS; FIGS. 15 and 16; trihydrochloride hydrate. As for the experimental part:
(§3) Serial dilutions for each CRS sequence were prepared. Each CRS sequence was held constant at 10 μM while BB33258 was titrated from 10 μM to 1 nM. All assays were performed at room temperature (˜25° C. in DPBS). Serial dilutions were pipetted into 96-well glass bottom plate and allowed to equilibrate for 3 hours at room temperature in the dark. Plates were then assayed for fluorescence intensity using Perkin-Elmer EnSpyre multimode plate reader. Scans from 370 nm to 580 nm for each sequence were obtained. Dilution concentrations and BB33258 combinations that saturated the PMT were excluded.

Series [7] concerns mCMV CRS sequence. Kind of series: bisBenzimide binding assay (fluorescence), mCMV CRS saturation curve. The conditions noted are these: BB33258 titrated from 10 μM to 1 nM; FIG. 18. How it is done:
as §3

For series [8], the system named is IE2 circuit in clinically derived CMV isolate TB40E. Nature of the series: Flow cytometry of TB40E infected ARPE cells. It counts as cell-based, human CMV (hCMV). The conditions noted are these: 17 h and 20 h post infection, FIG. 21. As for the experimental part: Flow cytometry was performed on TB40E infected ARPE cells at 17 h and 20 h post infection. The data was analyzed as described in Teng et al. Cell 2012, cited herein.
A general note: In flow cytometry, cells or beads pass a laser one at a time.

Entries after “also recorded” stand apart in the source; their conditions may differ. Structures can show the parent of a compound that is named as a salt.

In the case of `CN1CCN(c2ccc3[nH]c(-c4ccc5[nH]c(-c6ccc(O)cc6)nc5c4)nc3c2)CC1` [Hoechst 33258, 2′-(4-hydroxyphenyl)-5-(4-methyl-1-piperazinyl)-2,5′-bi-1H-benzimidazole trihydrochloride hydrate], the “breaking of the IE2 negative feedback circuit” value in series [1] (24-28 hour exposure) was “breaks the IE2 negative feedback circuit”. Besides, the “quiescent MIEP-driven expression in a reporter cell line” value in series [1] (ARPE-19 cells harboring LM2ig, 20 μM Hoechst 33258, FACS, FIG. 4 upper panel) was “activated quiescent MIEP-driven expression”. Also, the “number of GFP-positive cells” value in series [1] (ARPE-19 cells harboring LM2ig, Hoechst 33258 with or without VPA, FIG. 7) was “induced an increase”. Moreover, the “mean fluorescence intensity (MFI)” value in series [1] (ARPE-19 cells harboring LM2ig, Hoechst 33258 with or without VPA, FIG. 8) was “increased MFI”. In addition, the “production of IE2, as measured by GFP expression (GFP mean fluorescence intensity; GFP-MFI)” value in series [1] (ARPE-19 cells stably transduced with LM2ig, FIG. 1, FIG. 2) is “increased production of IE2”. Moreover, the “reactivation of the LM2ig minimal circuit” value in series [1] (Hoechst 33258: after 24 hours) is reported as “strongly reactivates”. In addition, the “breaking of the circuit and reactivation of the promoter from an off (silenced) state” value in series [1] (long-term (e.g., 8-10 days) exposure) was “breaks the circuit and reactivates the promoter”. For the same compound, in series [2], the “cell viability / cytotoxicity” value is reported as “reduced cell viability”. In addition, in series [3] (FIG. 10), the “reduction of hCMV replication” value is “more than 100 fold”. Moreover, the HCMV viral replication entry in series [3] (MRCS cells, CMV AD169, 5, 10 or 20 μM Hoechst 33258, data in PFU/ml, FIG. 3, trihydrochloride hydrate) is on record as “inhibited HCMV viral replication; also recorded: significantly reduced HCMV replication”. Moreover, the “reactivation of latent CMV” value in series [4] is “reactivated latent CMV; also recorded: reactivation of latent HCMV”. For the same compound, the “reduction of mCMV replication” value in series [5] is reported as around 5 fold. The “DNA binding specificity (motif)” value in series [6] is “binds primarily to a specific tetranucleotide motif (TTTA)”. Further, the “saturation of binding to mCMV CRS” value in series [7] was “did not saturate within the range of concentrations tested”. Moreover, the “IE2 circuit / IE2 expression levels” value in series [8] was “breaks the IE2 circuit and amplifies IE2 expression levels”.

The values above are taken from patent US10478431B2, “Methods for treating a cytomegalovirus infection” (priority 2014, dated 2019).
